For assay [1], the system named is P. falciparum Dd2 (PfLuc) line expressing firefly luciferase, asexual blood stage. The assay is described as follows: microbe, parasite or virus in culture. The assay is classed as cell-based, Plasmodium falciparum. The conditions noted are these: Plasmodium falciparum.
In assay [2] the test system is P. falciparum Dd2. The assay can be described thus: SYBR green I asexual blood stage proliferation assay (96 h). The class given is cell-based, Plasmodium falciparum. The conditions noted are these: Plasmodium falciparum, DD2, 11-pt dose response, 96hr.
Setting [3] is: DD2, read-out: CDD P. falciparum Luciferase ABS 11-pt Reconfirmation Dose Response (48hr): IC50 (μM), 11-pt dose response, 48hr.
Setting [4] is: DD2, 8-pt dose response, 96hr, read-out: CDD P. falciparum Luciferase ABS 8-pt Reconfirmation Dose Response (96hr): IC50.
Where [5] appears, read: DD2, 8-pt dose response, 96hr, read-out: CDD P. falciparum Luciferase ABS 8-pt Reconfirmation Dose Response (96hr): Maximum inhibition (%).
Setting [6] is: DD2, 11-pt dose response, 48hr, read-out: CDD P. falciparum Luciferase ABS 11-pt Reconfirmation Dose Response (48hr): Maximum inhibition (%).
The mark [7] stands for this setting: DD2, 11-pt dose response, 96hr, read-out: CDD P. falciparum Luciferase ABS 11-pt Reconfirmation Dose Response (96hr): IC50.
Where [8] appears, read: DD2, 11-pt dose response, 96hr, read-out: CDD P. falciparum Luciferase ABS 11-pt Reconfirmation Dose Response (96hr): Maximum inhibition (%).
Where [9] appears, read: Sybr Green I, read-out: CDD P. falciparum Sybr Green I ABS 11-pt Reconfirmation Dose Response (96hr): IC50.
[10] abbreviates: Sybr Green I, read-out: CDD P. falciparum Sybr Green I ABS 11-pt Reconfirmation Dose Response (96hr): Maximum inhibition (%).
The mark [11] stands for this setting: DD2, read-out: P. falciparum Luciferase ABS 11-pt Reconfirmation Dose Response (48hr): IC50, 11-pt dose response, 48hr.
Setting [12] is: DD2, 8-pt dose response, 96hr, read-out: P. falciparum Luciferase ABS 8-pt Reconfirmation Dose Response (96hr): IC50.
The mark [13] stands for this setting: DD2, 8-pt dose response, 96hr, read-out: P. falciparum Luciferase ABS 8-pt Reconfirmation Dose Response (96hr): Maximum inhibition (%).
Setting [14] is: DD2, 11-pt dose response, 48hr, read-out: P. falciparum Luciferase ABS 11-pt Reconfirmation Dose Response (48hr): Maximum inhibition (%).
Setting [15] is: DD2, 11-pt dose response, 96hr, read-out: P. falciparum Luciferase ABS 11-pt Reconfirmation Dose Response (96hr): IC50.
The mark [16] stands for this setting: DD2, 11-pt dose response, 96hr, read-out: P. falciparum Luciferase ABS 11-pt Reconfirmation Dose Response (96hr): Maximum inhibition (%).
The mark [17] stands for this setting: read-out: P. falciparum Sybr Green I ABS 11-pt Reconfirmation Dose Response (96hr): IC50.
Setting [18] is: read-out: P. falciparum Sybr Green I ABS 11-pt Reconfirmation Dose Response (96hr): Maximum inhibition (%).

The source of these data is paper PMC7155171, “Probing the Open Global Health Chemical Diversity Library for Multistage-Active Starting Points for Next-Generation Antimalarials” (ACS Infectious Diseases, 2020).

The structures appear in SMILES notation. Where two headings read alike, the source gives them in different places.

As for `Cc1nccn1CCCN1CCCC(c2ccccc2)C1` (centres unmarked) [DDD01251840], the IC50 (in general, the concentration that gives 50% inhibition) in assay [1] (setting [3]) is 3.3 µM; in assay [1] (setting [4]), 0.25 µM; in assay [1] (setting [7]), 0.14 µM; in assay [2] (setting [9]), 880 nM. In addition, the Emax stood at 91.7% in assay [1] (setting [5]), 83.3% in assay [1] (setting [6]), 99.5% in assay [1] (setting [8]) and 93.4% in assay [2] (setting [10]).

Turning to `OCc1csc(N2CCCC(COc3cccc(F)c3)C2)n1` (centres unmarked) [DDD01251951], the IC50 in assay [1] (setting [11]) was > 12.5 µM; in assay [1] (setting [12]), 1.71 µM; in assay [1] (setting [15]), 3.99 µM; in assay [2] (setting [17]), 1630 nM. Moreover, the Emax in assay [1] (setting [13]) amounted to 79.1%; in assay [1] (setting [14]), 45.9%; in assay [1] (setting [16]), 82.9%; in assay [2] (setting [18]) it was 63%.

Consider `CN(CCCO)Cc1cc(Cl)ccc1OCC(O)CN1CCCCCC1` (centres unmarked) [DDD01251957], for which the IC50 in assay [1] (setting [3]) was 2.71 µM; in assay [1] (setting [4]) it was 0.99 µM; in assay [1] (setting [7]) it was > 1.39 µM; in assay [2] (setting [9]), 2750 nM. Also, the results for the Emax in assay [1] (setting [5]), in assay [1] (setting [6]) and in assay [1] (setting [8]) were 94.6%, 99.2% and 101%, respectively.

For the molecule `CN1CCN(Cc2ccccc2Oc2nccc3occc23)CC1` [DDD01252026], the IC50 in assay [1] (setting [3]) was > 12.5 µM; in assay [1] (setting [4]), 0.71 µM; in assay [1] (setting [7]) it was 2.91 µM; in assay [2] (setting [9]), > 4160 nM. The Emax was determined as 83.5% in assay [1] (setting [5]), 26.1% in assay [1] (setting [6]), 85.7% in assay [1] (setting [8]) and 63.4% in assay [2] (setting [10]).

Turning to `O=C(C1CNCCO1)N1CCCC(c2ccccc2)(c2ccccc2)C1` (centres unmarked) [DDD01252287], the IC50 amounted to 6.95 µM in assay [1] (setting [11]), 2.21 µM in assay [1] (setting [12]), 2.05 µM in assay [1] (setting [15]) and 5760 nM in assay [2] (setting [17]). In addition, the Emax stood at 80.7% in assay [1] (setting [13]), 53.2% in assay [1] (setting [14]), 83.1% in assay [1] (setting [16]) and 58.4% in assay [2] (setting [18]).

Regarding `COCCn1ccnc1CN(Cc1ccccn1)Cc1sccc1C` [DDD01252459], the IC50 in assay [1] (setting [11]) was 3.48 µM; in assay [1] (setting [12]), 1.19 µM; in assay [1] (setting [15]), 0.73 µM; in assay [2] (setting [17]), > 4160 nM. Moreover, the Emax is 90.8% in assay [1] (setting [13]), 94.7% in assay [1] (setting [14]), 99.1% in assay [1] (setting [16]) and 87.8% in assay [2] (setting [18]).

On to `Cc1ccc(C2(CN(C)Cc3sccc3C)CCNCC2)nc1` [DDD01252463], for which the IC50 in assay [1] (setting [3]) is > 12.5 µM; in assay [1] (setting [4]) it was 0.73 µM; in assay [1] (setting [7]) it was 1.59 µM; in assay [2] (setting [9]), > 12500 nM. For the same molecule, the Emax was 78.8% in assay [1] (setting [5]), 41.3% in assay [1] (setting [6]), 81.7% in assay [1] (setting [8]) and 57.2% in assay [2] (setting [10]).

As to `c1ccn2c(C3CCCN(c4ncnc5c4CCNC5)C3)nnc2c1` (centres unmarked) [DDD01252518], the IC50 in assay [1] (setting [3]) was > 1.39 µM; in assay [1] (setting [4]) it was 0.26 µM; in assay [1] (setting [7]) it was 0.449 µM; in assay [2] (setting [9]) it was > 12500 nM. For the same molecule, the Emax in assay [1] (setting [5]) turned out to be 90.8%; in assay [1] (setting [6]) it was 64.8%; in assay [1] (setting [8]), 97.6%; in assay [2] (setting [10]) it was 42%.

As for `CCOc1cccc(CN2CCCC(Nc3ccc(F)cc3)C2)c1O` (centres unmarked) [DDD01252745], the IC50 in assay [1] (setting [3]) came to 1.43 µM; in assay [1] (setting [4]) it was 0.6 µM; in assay [1] (setting [7]) it was 0.703 µM; in assay [2] (setting [9]) it was 1880 nM. In addition, the Emax in assay [1] (setting [5]) turned out to be 93.4%; in assay [1] (setting [6]), 96.3%; in assay [1] (setting [8]), 99.7%; in assay [2] (setting [10]) it was 98.6%.

Regarding `CN(CCO)C[C@@H]1CN(Cc2ccccc2-c2ccccc2)C[C@@H]1CO` [DDD01252927], the IC50 was 8.14 µM in assay [1] (setting [3]), 0.57 µM in assay [1] (setting [4]), 1.25 µM in assay [1] (setting [7]) and > 1390 nM in assay [2] (setting [9]). The Emax in assay [1] (setting [5]) came to 92%; in assay [1] (setting [6]), 71.8%; in assay [1] (setting [8]) it was 92.8%; in assay [2] (setting [10]), 89.1%.

As for `Cc1ccc(C)c(OCCNC(=O)[C@@H]2CCCCN2)c1` [DDD01252936], the IC50 amounted to 6.36 µM in assay [1] (setting [3]), 0.37 µM in assay [1] (setting [4]), 1.17 µM in assay [1] (setting [7]) and 7600 nM in assay [2] (setting [9]). For the same molecule, the Emax is 89.3% in assay [1] (setting [5]), 74.3% in assay [1] (setting [6]) and 87.5% in assay [1] (setting [8]).
